Test results taken from US20110053770A1, “SUBSTITUTED AMINOTHIAZOLES AND THEIR USE AS FUNGICIDES” (BAYER CROPSCIENCE AG, priority 2009, published 2011).
Marks after values point to notes of the source that are not given here.

Experiment: logP by HPLC on reversed-phase columns (C 18), EEC directive 79/831 Annex V.A8
Type: physicochemical
Details: for log P (**) / log P (***): LC-MS; for log P (**) / log P (*): acidic range; for log P (**): pH 2.7, 0.1% aqueous formic acid and acetonitrile; for log P (***): neutral range, pH 7.8, 0.001 molar aqueous ammonium bicarbonate and acetonitrile; for log P (*): pH 2.3, 0.1% aqueous phosphoric acid and acetonitrile
Method: Calibration was carried out using unbranched alkan-2-ones (having from 3 to 16 carbon atoms) with known logP values (the logP values were determined by the retention times using linear interpolation between two successive alkanones).

SMILES	log P (**)	log P (***)	log P (*)
Fc1ccc(Cc2ccccc2-c2csc(N=C3CCCCN3)n2)cc1 [compound 90, 4-[2-(4-fluorobenzyl)phenyl]-N-[(2E/Z)-piperidin-2-ylidene]-1,3-thiazole-2-amine]	1.95	4.19	–
Clc1cccc(Cl)c1Cc1ccccc1-c1csc(N=C2CCCCN2)n1 [compound 91, 4-[2-(2,6-dichlorobenzyl)phenyl]-N-[(2E/Z)-piperidin-2-ylidene]-1,3-thiazole-2-amine]	2.16	4.36	–
Clc1ccc(Cc2ccccc2-c2csc(N=C3CCCCN3)n2)cc1Cl [compound 92, 4-[2-(3,4-dichloro-benzyl)phenyl]-N-[(2E/Z)-piperidin-2-ylidene]-1,3-thiazole-2-amine]	–	5.07	2.36
Clc1ccc(Cc2ccccc2-c2csc(N=C3CCCCN3)n2)cc1 [compound 93, 4-[2-(4-chlorobenzyl)-phenyl]-N-[(2E/Z)-piperidin-2-ylidene]-1,3-thiazole-2-amine]	2.17	4.7	–
c1ccc(Cc2ccc(-c3csc(N=C4CCCCN4)n3)cc2)cc1 [compound 94, 4-(4-benzylphenyl)-N-[(2E/Z)-piperidin-2-ylidene]-1,3-thiazole-2-amine]	2.07	4.28	–
Cc1ccc(Oc2ccccc2-c2csc(N=C3CCCN3)n2)c(C)c1 [compound 95, 4-[2-(2,4-dimethylphenoxy)phenyl]-N-[(2E/Z)-pyrrolidin-2-ylidene]-1,3-thiazole-2-amine]	2.52	2.48	–
Clc1ccc(-c2csc(N=C3CCCN3)n2)cc1 [compound 96, 4-(4-chlorophenyl)-N-[(2E/Z)-pyrrolidin-2-ylidene]-1,3-thiazole-2-amine]	1.57**	–	–
Fc1ccc(Oc2ccc(-c3csc(N=C4CCCN4)n3)cc2)c(F)c1 [compound 97, 4-[4-(2,4-difluorophenoxy)phenyl]-N-[(2E/Z)-pyrrolidin-2-ylidene]-1,3-thiazole-2-amine]	–	3.59	2.03
c1ccc(Oc2ccccc2-c2csc(N=C3CCCN3)n2)cc1 [compound 98, 4-(2-phenoxyphenyl)-N-[(2E/Z)-pyrrolidin-2-ylidene]-1,3-thiazole-2-amine]	2.05	3.54	1.92
Clc1ccc(Oc2ccccc2-c2csc(N=C3CCCN3)n2)c(Cl)c1 [compound 99, 4-[2-(2,4-dichlorophenoxy)phenyl]-N-[(2E/Z)-pyrrolidin-2-ylidene]-1,3-thiazole-2-amine]	2.49	4.43	2.49
CC(C)(C)c1cc(Oc2ccccc2-c2csc(N=C3CCCN3)n2)ccc1Cl [compound 101, 4-[2-(3-tert-butyl-4-chlorophenoxy)phenyl]-N-[(2E/Z)-pyrrolidin-2-ylidene]-1,3-thiazole-2-amine]	3.09	5.53	3.09
Fc1ccc(Oc2ccccc2-c2csc(N=C3CCCN3)n2)c(F)c1 [compound 102, 4-[2-(2,4-difluorophenoxy)phenyl]-N-[(2E/Z)-pyrrolidin-2-ylidene]-1,3-thiazole-2-amine]	–	3.55	1.98
Clc1ccc(-c2csc(N=C3CCCCN3)n2)cc1 [compound 103, 4-(4-chlorophenyl)-N-[(2E/Z)-piperidin-2-ylidene]-1,3-thiazole-2-amine]	1.68	3.47	1.68
Clc1ccc(-c2csc(N=C3CCCCN3)n2)c(Cl)c1 [compound 104, 4-(2,4-dichlorophenyl)-N-[(2E/Z)-piperidin-2-ylidene]-1,3-thiazole-2-amine]	1.76	3.92	1.76
FC(F)(F)c1cccc(-c2csc(N=C3CCCCN3)n2)c1 [compound 105, N-[(2E/Z)-piperidin-2-ylidene]-4-[3-(trifluoromethyl)phenyl]-1,3-thiazole-2-amine]	1.75**	–	–
Brc1cccc(-c2csc(N=C3CCCCN3)n2)c1 [compound 106, 4-(3-bromophenyl)-N-[(2E/Z)-piperidin-2-ylidene]-1,3-thiazole-2-amine]	1.53**	–	–
Brc1ccccc1-c1csc(N=C2CCCCN2)n1 [compound 107, 4-(2-bromophenyl)-N-[(2E/Z)-piperidin-2-ylidene]-1,3-thiazole-2-amine]	1.38**	–	–
